These are literature values, as cited in patent US20180280305A1 (Bayer HealthCare LLC, priority 2015, published 2018).

Structures are written as SMILES.

The conditions of this data set: pain conditions, non-prescription (OTC) setting.

As for `COc1ccc2cc([C@H](C)C(=O)O)ccc2c1` [naproxen sodium], the lowest effective dose is listed as 220 mg.
